For assay [1], the target named is STE20/SPS1-related proline-alanine-rich protein kinase (Homo sapiens) (UniProt Q9UEW8). In words: Selectivity interaction (KinomeScan (DiscoverX)) EUB0000666a STK39. Conditions: at 10 µM.
Assay [2] has as its target T1, NUAK family SNF1-like kinase 2 (Homo sapiens) (UniProt Q9H093).
T1 sequence (whole entry): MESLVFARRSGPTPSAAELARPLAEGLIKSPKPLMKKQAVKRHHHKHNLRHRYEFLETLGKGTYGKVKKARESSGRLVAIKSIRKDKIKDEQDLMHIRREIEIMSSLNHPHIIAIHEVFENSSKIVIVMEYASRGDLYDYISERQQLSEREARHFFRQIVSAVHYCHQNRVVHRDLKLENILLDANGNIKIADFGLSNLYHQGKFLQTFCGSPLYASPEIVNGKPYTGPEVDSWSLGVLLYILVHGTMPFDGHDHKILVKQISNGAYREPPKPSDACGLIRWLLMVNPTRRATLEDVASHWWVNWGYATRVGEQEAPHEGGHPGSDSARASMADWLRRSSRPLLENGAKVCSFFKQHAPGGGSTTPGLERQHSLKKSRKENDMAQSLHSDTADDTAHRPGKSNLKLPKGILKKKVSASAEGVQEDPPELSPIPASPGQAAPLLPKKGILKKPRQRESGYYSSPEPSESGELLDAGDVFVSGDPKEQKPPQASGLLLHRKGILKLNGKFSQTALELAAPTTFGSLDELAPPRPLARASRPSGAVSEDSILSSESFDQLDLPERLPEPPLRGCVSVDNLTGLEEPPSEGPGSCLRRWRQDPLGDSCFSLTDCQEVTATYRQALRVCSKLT
In words: Selectivity interaction (KinomeScan (DiscoverX)) EUB0000666a NUAK2. Conditions: at 10 µM.

For assay [3], the target named is Macrophage colony-stimulating factor 1 receptor (Homo sapiens) (UniProt P07333). In words: Selectivity interaction (KinomeScan (DiscoverX)) EUB0000607a CSF1R. As to conditions: at 10 µM.
Sequence of Macrophage colony-stimulating factor 1 receptor (Homo sapiens) (P07333 whole entry): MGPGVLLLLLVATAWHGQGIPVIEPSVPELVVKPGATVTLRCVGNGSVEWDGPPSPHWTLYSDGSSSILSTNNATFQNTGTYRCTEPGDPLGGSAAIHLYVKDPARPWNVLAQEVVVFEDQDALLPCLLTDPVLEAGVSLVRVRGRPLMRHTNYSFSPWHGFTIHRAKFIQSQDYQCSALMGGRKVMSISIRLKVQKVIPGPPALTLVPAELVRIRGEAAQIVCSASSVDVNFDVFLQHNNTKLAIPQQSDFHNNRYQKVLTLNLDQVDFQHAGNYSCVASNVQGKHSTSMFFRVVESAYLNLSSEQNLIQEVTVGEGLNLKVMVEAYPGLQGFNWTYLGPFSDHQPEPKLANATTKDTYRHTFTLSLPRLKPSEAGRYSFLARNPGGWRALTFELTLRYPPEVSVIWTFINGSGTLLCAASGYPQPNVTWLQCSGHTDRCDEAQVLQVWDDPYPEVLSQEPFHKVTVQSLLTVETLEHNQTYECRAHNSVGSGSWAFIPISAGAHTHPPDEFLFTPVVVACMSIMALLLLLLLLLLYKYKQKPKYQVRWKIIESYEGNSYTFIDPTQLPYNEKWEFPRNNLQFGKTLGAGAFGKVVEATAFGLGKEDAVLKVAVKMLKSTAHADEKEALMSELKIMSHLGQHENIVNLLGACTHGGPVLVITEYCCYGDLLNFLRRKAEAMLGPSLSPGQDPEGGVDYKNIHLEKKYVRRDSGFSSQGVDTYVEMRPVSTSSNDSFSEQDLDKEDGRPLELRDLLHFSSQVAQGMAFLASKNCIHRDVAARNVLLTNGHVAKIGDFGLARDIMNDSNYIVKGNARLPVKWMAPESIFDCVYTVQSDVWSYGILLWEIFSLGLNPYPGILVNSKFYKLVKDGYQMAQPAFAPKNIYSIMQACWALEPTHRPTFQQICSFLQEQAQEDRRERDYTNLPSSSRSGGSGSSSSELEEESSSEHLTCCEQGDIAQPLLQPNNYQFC
In assay [4] the target is Tyrosine-protein kinase Lyn (Homo sapiens, UniProt P07948). In words: Selectivity interaction (KinomeScan (DiscoverX)) EUB0000607a LYN. As to conditions: at 10 µM.
Sequence of Tyrosine-protein kinase Lyn (P07948 2-512 limits assumed): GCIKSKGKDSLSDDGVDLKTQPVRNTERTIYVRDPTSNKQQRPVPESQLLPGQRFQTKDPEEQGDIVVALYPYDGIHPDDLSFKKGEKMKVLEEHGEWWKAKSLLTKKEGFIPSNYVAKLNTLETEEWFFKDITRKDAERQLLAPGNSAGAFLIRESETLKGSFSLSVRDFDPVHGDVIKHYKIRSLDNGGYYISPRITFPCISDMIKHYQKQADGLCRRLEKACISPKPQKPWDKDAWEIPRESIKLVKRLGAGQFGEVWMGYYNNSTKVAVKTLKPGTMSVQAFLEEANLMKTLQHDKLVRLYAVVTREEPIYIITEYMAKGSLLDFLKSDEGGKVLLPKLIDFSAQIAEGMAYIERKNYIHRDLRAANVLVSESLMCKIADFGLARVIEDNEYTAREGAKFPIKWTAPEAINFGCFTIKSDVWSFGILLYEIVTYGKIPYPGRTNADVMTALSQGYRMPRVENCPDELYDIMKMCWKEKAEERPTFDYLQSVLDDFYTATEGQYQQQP
In assay [5] the target is T2, Serine/threonine-protein kinase LATS2 (Homo sapiens) (UniProt Q9NRM7).
T2 sequence (whole entry): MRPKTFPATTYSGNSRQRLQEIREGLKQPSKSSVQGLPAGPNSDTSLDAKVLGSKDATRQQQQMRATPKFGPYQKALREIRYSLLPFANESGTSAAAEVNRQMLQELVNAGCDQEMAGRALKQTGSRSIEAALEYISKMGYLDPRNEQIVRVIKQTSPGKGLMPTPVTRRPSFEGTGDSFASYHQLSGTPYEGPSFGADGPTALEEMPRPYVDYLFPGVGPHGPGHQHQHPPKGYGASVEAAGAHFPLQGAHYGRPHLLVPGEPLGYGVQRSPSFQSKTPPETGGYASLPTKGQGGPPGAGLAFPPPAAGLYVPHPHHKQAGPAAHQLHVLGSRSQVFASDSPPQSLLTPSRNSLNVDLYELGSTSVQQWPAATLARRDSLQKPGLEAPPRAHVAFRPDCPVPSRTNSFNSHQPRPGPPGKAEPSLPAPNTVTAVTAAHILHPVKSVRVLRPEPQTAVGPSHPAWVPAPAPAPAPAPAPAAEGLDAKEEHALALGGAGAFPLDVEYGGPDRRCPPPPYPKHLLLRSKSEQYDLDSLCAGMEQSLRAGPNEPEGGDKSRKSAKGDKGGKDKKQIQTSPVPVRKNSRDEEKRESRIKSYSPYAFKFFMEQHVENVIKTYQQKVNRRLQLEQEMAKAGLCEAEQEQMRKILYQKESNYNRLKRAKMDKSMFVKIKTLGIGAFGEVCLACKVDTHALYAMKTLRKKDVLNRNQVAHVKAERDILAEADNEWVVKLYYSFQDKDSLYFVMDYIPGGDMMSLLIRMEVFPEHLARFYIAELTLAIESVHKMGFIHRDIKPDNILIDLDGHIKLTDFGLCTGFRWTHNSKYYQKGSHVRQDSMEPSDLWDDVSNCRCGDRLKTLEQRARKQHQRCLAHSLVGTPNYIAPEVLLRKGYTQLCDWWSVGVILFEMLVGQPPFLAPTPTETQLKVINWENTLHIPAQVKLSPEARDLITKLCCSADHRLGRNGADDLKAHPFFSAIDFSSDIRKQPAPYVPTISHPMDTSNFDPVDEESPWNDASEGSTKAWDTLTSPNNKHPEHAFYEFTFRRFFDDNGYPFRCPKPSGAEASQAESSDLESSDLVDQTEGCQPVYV
As to conditions: at 10 µM.

Assay [6] deals with Tyrosine-protein kinase HCK (Homo sapiens) (UniProt P08631). In words: Selectivity interaction (ActivX KiNativ screen (kinase selectivity in THP-1 cell lysates)) EUB0000639a HCK. It is filed as subcellular. Conditions: lysate, at 1 µM.
Sequence of Tyrosine-protein kinase HCK (Homo sapiens) (P08631 2-526 limits assumed): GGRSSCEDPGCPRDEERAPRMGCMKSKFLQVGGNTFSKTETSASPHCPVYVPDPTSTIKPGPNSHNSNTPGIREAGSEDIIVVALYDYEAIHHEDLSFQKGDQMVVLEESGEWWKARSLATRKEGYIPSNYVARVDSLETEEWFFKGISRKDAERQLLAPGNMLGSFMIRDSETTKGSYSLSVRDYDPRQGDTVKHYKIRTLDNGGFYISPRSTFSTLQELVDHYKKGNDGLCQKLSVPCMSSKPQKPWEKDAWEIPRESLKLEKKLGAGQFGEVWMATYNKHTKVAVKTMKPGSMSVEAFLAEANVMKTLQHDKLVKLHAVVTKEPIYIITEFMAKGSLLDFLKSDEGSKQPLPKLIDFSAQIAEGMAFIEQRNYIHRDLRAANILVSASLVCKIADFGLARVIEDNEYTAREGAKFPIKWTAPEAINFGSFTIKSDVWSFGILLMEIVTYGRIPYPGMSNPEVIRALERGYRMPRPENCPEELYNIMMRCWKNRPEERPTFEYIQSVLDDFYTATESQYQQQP
Assay [7] deals with Serine/threonine-protein kinase 25 (Homo sapiens) (UniProt O00506). As to the kind of experiment: Selectivity interaction (ProQinase) EUB0000171b STK25.
Sequence of Serine/threonine-protein kinase 25 (Homo sapiens) (O00506 whole entry, looked up): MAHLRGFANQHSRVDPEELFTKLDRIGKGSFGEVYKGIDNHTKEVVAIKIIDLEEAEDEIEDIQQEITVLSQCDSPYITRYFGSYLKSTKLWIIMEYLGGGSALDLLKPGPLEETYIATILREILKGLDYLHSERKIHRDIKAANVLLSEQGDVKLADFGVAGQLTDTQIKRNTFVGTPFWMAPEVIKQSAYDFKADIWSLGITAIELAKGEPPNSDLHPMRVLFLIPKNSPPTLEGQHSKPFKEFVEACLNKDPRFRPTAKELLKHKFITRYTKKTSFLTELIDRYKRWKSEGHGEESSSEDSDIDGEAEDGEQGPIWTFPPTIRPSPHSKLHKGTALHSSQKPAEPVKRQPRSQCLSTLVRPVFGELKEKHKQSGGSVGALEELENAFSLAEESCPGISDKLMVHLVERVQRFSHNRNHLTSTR
In assay [8] the target is Protein kinase C eta type (Homo sapiens) (UniProt P24723). As to the kind of experiment: Selectivity interaction (KinomeScan (DiscoverX)) EUB0001049a PRKCH. As to conditions: at 1 µM.
Sequence of Protein kinase C eta type (Homo sapiens) (P24723 whole entry): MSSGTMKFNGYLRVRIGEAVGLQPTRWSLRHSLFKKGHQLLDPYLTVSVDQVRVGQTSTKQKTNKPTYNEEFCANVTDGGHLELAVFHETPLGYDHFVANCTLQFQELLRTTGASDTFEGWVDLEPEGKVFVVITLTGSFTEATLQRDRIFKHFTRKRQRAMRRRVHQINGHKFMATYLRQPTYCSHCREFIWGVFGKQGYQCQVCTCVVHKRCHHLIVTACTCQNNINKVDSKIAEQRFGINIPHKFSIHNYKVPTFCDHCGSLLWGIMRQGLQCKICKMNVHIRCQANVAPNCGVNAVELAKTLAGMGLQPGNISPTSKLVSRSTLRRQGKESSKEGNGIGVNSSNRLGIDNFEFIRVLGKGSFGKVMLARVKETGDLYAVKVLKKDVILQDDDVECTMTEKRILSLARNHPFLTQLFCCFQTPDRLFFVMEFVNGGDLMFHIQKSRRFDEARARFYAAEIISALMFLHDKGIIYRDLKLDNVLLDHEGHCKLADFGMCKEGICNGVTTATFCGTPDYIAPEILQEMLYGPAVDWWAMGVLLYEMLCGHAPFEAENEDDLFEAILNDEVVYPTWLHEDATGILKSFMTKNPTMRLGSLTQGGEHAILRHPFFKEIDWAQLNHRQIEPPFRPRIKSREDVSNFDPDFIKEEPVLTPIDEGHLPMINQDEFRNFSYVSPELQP
Assay [9] addresses Tyrosine-protein kinase ABL1 (Homo sapiens, UniProt P00519). As to the kind of experiment: Selectivity interaction (KinomeScan (DiscoverX)) EUB0000655a ABL1. Conditions: at 10 µM.
Assay [10] deals with T3, Atypical kinase COQ8B, mitochondrial (Homo sapiens) (UniProt Q96D53).
T3 sequence (whole entry): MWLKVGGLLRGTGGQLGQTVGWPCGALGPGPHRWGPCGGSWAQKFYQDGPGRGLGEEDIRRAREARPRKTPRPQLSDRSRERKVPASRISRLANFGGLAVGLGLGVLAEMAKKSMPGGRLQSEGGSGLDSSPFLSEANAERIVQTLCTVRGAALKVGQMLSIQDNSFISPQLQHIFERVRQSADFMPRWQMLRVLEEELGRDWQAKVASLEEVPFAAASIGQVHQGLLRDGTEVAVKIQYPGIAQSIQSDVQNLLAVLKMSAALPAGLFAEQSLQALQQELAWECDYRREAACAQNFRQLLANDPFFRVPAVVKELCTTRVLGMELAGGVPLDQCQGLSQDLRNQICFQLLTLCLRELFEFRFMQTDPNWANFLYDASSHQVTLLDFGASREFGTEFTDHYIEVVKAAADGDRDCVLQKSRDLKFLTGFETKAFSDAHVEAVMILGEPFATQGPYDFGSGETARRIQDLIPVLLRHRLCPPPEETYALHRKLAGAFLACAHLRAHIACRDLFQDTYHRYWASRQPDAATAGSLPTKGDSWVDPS
In words: Selectivity interaction (KinomeScan (DiscoverX)) EUB0000618a ADCK4. Conditions: at 10 µM.

SMILES strings stand for the structures.

Sequence of Tyrosine-protein kinase ABL1 (P00519 whole entry): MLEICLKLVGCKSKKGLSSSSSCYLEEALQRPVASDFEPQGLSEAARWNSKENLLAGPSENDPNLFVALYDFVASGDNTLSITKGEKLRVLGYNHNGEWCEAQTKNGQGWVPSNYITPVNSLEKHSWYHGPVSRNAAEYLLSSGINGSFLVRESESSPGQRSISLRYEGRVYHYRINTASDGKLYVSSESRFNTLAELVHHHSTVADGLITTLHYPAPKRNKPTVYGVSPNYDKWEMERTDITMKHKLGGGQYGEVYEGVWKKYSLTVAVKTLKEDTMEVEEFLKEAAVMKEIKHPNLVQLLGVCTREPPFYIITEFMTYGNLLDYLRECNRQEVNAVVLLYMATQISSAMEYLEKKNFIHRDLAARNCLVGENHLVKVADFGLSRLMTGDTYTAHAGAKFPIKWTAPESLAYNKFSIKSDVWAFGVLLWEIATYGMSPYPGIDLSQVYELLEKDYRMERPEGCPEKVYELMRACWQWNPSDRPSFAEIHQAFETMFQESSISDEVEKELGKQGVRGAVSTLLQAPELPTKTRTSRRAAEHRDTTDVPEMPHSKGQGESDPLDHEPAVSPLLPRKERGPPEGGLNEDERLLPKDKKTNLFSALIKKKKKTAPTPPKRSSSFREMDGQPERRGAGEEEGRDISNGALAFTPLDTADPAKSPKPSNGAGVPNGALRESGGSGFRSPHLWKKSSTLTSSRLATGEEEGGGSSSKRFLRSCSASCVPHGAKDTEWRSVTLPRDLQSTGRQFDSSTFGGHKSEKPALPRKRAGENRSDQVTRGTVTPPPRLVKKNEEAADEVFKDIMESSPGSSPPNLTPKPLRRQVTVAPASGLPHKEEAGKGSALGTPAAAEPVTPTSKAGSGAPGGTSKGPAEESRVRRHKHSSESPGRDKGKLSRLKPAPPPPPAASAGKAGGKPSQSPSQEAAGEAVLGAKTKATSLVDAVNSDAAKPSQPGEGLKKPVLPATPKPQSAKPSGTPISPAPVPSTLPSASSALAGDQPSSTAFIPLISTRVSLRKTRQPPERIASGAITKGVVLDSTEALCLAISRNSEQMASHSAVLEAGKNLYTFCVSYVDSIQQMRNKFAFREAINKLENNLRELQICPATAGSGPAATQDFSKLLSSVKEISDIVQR

With `O=C(NOC[C@H](O)CO)c1ccc(F)c(F)c1Nc1ccc(I)cc1F`, the values for the % of control in assay [1] and in [2] were 96% and 99%, respectively.

Consider `CNC(=O)Nc1ccc(-c2nc(N3CC4CCC(C3)O4)c3cnn(C4CCC5(CC4)OCCO5)c3n2)cc1`, for which the results for the % of control in assay [3] and in assay [4] were 100% and 85%, respectively.

In turn, `Cc1cc([C@@H](C)Nc2ccccc2C(=O)O)c2nc(N3CCOCC3)cc(=O)n2c1` [AZD-6482] returned a % of control in assay [5] of 63%.

Turning to `CC[C@@H]1[C@H](F)C(=O)N[C@@H]1COc1nccc2cc(C(N)=O)c(OC)cc12` [ZIMLOVISERTIB], the % of inhibition in assay [6] is -16.5%.

Turning to `C=CC(=O)Nc1cccc(C(=O)Nc2ccc(Nc3cc(-c4[nH]c(SC)nc4C)ccn3)cc2)c1`, the results for the % of control in assay [7] (at 1 µM) and in assay [7] (at 5 µM) were 88% and 95%, respectively.

`COc1cc(Nc2nc(C)cc(-c3cnn4nc(OC)ccc34)n2)cc(C(F)(F)F)c1` registered a % of control in assay [8] of 100%.

For the compound `CN(C)CCOc1ccc(-c2nc(-c3ccncc3)c(-c3ccc4c(c3)CC/C4=N\O)[nH]2)cc1`, the % of control in assay [9] came to 6%.

Compound `O[C@H]1CC[C@H](Nc2ncc3nc(Nc4c(F)cc(F)cc4F)n([C@H]4CCOC4)c3n2)CC1` gave a % of control in assay [10] of 87%.

The values above are taken from ChEMBL document CHEMBL5465560, “Selectivity Literature for EUbOPEN Chemogenomic Library” (2024).
